In publication PMC10892041, “Vanadium Complexes with Thioanilide Derivatives of Amino Acids: Inhibition of Human Phosphatases and Specificity in Various Cell Models of Metabolic Disturbances” (Pharmaceuticals, 2024):
Where two headings read alike, the source gives them in different places.

What was measured:
CDC25A = biological target: T1, CDC25A (Homo sapiens, UniProt P30304); experiment: Inhibition of human recombinant non-tyrosine phosphatase CDC25A (3-O-methylfluorescein phosphate); type: biochemical
T1 construct: purchased Sigma-Aldrich
T1 sequence (P30304 1-524): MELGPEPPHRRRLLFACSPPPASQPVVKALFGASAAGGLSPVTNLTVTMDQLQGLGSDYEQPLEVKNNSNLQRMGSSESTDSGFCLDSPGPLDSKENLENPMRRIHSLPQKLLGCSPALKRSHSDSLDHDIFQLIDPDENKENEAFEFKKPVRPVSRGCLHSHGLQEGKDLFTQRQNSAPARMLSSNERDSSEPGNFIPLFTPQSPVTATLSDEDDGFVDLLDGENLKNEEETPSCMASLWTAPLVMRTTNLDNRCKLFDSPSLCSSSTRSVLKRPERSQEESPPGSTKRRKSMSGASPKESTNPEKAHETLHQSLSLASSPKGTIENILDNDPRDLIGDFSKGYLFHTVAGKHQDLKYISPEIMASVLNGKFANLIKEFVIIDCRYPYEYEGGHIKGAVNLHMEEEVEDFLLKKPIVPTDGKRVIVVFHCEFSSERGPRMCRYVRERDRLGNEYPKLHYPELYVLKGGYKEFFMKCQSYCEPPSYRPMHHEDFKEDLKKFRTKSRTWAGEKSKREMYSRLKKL
Description: (§1) For the inhibition assay of non-tyrosine phosphatases, human recombinant proteins were used (Sigma-Aldrich). The reactions were performed in black opaque 384-well microplates (PerkinElmer). To the solution of the tested complexes, an equal volume of a test solution of phosphatase was added. CDC25A were diluted in reaction buffer to the final concentration of 400 ng/mL as for tyrosine phosphatases (described in the section above), and PPA2 (final 0.5 U/mL) was diluted in 50 mM Tris-HCl, 0.05% Tween-20, and 125 µg/mL protease-free bovine serum albumin (pH 7.0). These solutions were dispensed using an automated injector. After 10 min, a solution of phosphate 6,8-difluoro-4-methyl (DiFMUP; Thermo Fisher Scientific) was added for the PPA2 sample until the final concentration 0.1 mM. For CDC25A samples, 3-O-methylfluorescein phosphate for the final concentration of 0.2 mM was added. Samples were incubated for 180 min at 23 °C, and then the measurements of fluorescence intensity (excitation 355 and emission 560 nm) were performed on a multifunctional plate reader POLARstar Omega (BMG Labtech). Assays were performed in triplicate. The results were expressed as percent of inhibition of untreated control (enzyme with vehicle solvent only).

SHP2 = biological target: T2, SHP2 (Homo sapiens, UniProt Q06124); experiment: Inhibition of human recombinant tyrosine phosphatase SHP2 (DiFMUP fluorescence); type: biochemical; settings: for Inhibition of SHP2, percentage of inhibition of the control: 1 µM, control solvent only, SD did not exceed 6%
T2 construct: purchased Sigma-Aldrich
T2 sequence (Q06124 1-593): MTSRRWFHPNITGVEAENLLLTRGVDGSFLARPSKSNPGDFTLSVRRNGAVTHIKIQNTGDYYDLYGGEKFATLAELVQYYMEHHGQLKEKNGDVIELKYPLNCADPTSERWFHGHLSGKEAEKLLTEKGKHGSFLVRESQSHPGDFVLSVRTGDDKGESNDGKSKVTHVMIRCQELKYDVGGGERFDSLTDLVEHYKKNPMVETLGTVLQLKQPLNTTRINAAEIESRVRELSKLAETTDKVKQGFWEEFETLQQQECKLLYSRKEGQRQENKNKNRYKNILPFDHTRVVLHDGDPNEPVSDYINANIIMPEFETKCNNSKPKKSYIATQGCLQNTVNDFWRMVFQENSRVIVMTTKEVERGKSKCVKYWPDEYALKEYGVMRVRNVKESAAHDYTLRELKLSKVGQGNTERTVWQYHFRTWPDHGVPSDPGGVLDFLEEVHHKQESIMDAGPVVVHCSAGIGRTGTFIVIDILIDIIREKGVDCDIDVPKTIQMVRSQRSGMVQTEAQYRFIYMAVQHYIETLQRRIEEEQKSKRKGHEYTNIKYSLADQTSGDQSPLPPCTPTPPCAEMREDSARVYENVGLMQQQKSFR
Description: (§2) To determine the ability of the tested compounds for inhibition tyrosine phosphatases, human recombinant proteins were used (Sigma-Aldrich). The reactions were performed in black opaque 384-well microplates (PerkinElmer, Waltham, MA, USA). An equal volume of phosphatase solution in a reaction buffer (25 mM of 3-(N-morpholino)propanesulfonic acid (MOPS), 50 mM NaCl, 1 mM dithiothreitol (DTT), and 0.05% Tween-20 (pH 7.0)) was added to the solution of the tested compound on microplate. These solutions were dispensed using an automated injector. The following final concentrations of the tested phosphatases were used: PTP1B 50 ng/mL, SHP1 400 ng/mL, SHP2 50 ng/mL, LAR 5 ng/mL, and PTPRA 100 ng/mL. After 10 min, a solution of phosphate 6,8-difluoro-4-methyl (DiFMUP; Thermo Fisher Scientific) was added until its final concentration was 0.1 mM. Samples were incubated for 20 miN at 23 °C, and then the measurements of fluorescence intensity (excitation 355 and emission […]) were performed on a multifunctional plate reader POLARstar Omega (BMG Labtech, Ortenberg, Germany). Assays were performed in triplicate. For the screening assays, the final concentration of the tested compounds was 1 µM. The results were expressed as percent inhibition of untreated control (enzyme with vehicle only) for the screening tests. […] IC50 were calculated using GraphPad Prism version 6.0 software (GraphPad Software, Boston, MA, USA).

LAR = biological target: T3, LAR (Homo sapiens, UniProt P10586); experiment: Inhibition of human recombinant tyrosine phosphatase LAR (DiFMUP fluorescence); type: biochemical; settings: for Inhibition of LAR, percentage of inhibition of the control: 1 µM, control solvent only, SD did not exceed 6%
T3 sequence (P10586 1352-1607 limits assumed): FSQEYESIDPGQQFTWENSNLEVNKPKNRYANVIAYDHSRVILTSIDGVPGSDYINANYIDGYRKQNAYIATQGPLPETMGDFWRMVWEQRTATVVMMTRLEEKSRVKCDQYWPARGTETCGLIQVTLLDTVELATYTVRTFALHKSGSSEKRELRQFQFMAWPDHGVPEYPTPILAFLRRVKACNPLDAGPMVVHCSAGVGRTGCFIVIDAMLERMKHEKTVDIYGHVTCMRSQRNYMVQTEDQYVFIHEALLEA
Description: as §2

PTP1B = biological target: T4, PTP1B (Homo sapiens, UniProt P18031); experiment: Inhibition of human recombinant tyrosine phosphatase PTP1B (DiFMUP fluorescence); type: biochemical; settings: for Inhibition of PTP1B, percentage of inhibition of the control: 1 µM, control solvent only, SD did not exceed 6%; for Log IC50 ± SD PTP1B: logarithm of IC50
T4 construct: purchased Sigma-Aldrich
T4 sequence (P18031 1-435): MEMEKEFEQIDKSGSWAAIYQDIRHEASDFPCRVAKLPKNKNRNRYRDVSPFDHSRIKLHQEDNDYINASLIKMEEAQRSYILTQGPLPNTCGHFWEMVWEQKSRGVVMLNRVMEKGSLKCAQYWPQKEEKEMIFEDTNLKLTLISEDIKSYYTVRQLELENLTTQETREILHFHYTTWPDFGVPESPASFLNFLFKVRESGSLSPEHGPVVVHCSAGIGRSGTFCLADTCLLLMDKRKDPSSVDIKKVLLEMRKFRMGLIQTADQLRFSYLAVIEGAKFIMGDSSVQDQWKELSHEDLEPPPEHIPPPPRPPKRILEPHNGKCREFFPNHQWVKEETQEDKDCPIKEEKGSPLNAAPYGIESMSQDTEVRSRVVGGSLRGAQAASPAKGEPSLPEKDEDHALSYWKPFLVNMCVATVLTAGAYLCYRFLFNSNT
Description: as §2

SHP1 = biological target: T5, SHP1 (Homo sapiens, UniProt P29350); experiment: Inhibition of human recombinant tyrosine phosphatase SHP1 (DiFMUP fluorescence); type: biochemical; settings: for Inhibition of SHP1, percentage of inhibition of the control: 1 µM, control solvent only, SD did not exceed 6%; for Log IC50 ± SD SHP1: logarithm of IC50
T5 construct: purchased Sigma-Aldrich
T5 sequence (P29350 whole entry): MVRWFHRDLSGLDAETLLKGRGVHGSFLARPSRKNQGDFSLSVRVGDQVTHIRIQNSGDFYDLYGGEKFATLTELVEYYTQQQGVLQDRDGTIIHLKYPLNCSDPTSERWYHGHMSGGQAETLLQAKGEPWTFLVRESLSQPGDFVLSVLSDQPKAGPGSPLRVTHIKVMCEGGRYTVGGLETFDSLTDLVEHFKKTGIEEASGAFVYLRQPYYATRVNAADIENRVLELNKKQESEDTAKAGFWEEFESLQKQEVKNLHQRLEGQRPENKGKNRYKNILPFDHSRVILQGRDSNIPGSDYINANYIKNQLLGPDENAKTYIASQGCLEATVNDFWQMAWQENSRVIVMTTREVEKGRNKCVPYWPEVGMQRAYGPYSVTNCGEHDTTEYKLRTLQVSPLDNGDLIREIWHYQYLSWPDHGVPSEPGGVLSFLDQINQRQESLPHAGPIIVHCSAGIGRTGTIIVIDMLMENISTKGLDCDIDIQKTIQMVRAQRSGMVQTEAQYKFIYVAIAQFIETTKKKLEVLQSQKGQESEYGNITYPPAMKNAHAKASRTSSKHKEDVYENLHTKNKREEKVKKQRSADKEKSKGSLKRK
Description: as §2

PP2A = PP2A (Homo sapiens, UniProt P67775); experiment: Inhibition of human recombinant non-tyrosine phosphatase PP2A (DiFMUP); type: biochemical
Chain of PP2A (P67775 whole entry): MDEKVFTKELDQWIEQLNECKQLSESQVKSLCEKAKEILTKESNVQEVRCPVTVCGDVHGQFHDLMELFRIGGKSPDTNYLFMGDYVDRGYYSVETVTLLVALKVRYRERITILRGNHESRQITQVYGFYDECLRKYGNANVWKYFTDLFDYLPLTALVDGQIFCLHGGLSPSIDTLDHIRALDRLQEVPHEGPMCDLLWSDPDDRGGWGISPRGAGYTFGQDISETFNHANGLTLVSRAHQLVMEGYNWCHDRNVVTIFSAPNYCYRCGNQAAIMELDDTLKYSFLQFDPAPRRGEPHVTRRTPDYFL
Description: as §1

myocytes C2C12 = experiment: Viability of myocytes C2C12 after 24 h incubation (resazurin-based reagent); settings: 50 µM
Description: Simultaneously with glucose consumption tests, the viability of myocytes C2C12 was examined due to their prolonged 24 h incubation with vanadium complexes.
Prolonged incubation of the cells with vanadium complexes, as was the case during the study of the effect on glucose consumption, more closely corresponds to the actual conditions of clinical use, also allowing for the identification of possible cytotoxic effects. […] A Resazurin-based reagent is reduced proportionally to the metabolic activity of cells as a result of the transference of electrons from NADPH+H^+, the amount of which strictly depends on glucose metabolism.

Row | Compound | Inhibition of CDC25A, percentage inhibition of control ± SD (CDC25A; 1 µM) | Inhibition of CDC25A, percentage inhibition of control ± SD (CDC25A; 10 µM) | IC50 (SHP2) | Inhibition of SHP2, percentage of inhibition of the control (SHP2) | IC50 (LAR) | Inhibition of LAR, percentage of inhibition of the control (LAR) | Inhibition of PTP1B, percentage of inhibition of the control (PTP1B) | Log IC50 ± SD PTP1B (PTP1B) | IC50 (PTP1B; read-out: IC50 PTP1B) | IC50 (SHP1) | Inhibition of SHP1, percentage of inhibition of the control (SHP1) | Log IC50 ± SD SHP1 (SHP1) | Inhibition of PP2A, percentage inhibition of control ± SD (PP2A; 1 µM) | Inhibition of PP2A, percentage inhibition of control ± SD (PP2A; 10 µM) | Log IC50 ± SD SHP2 (SHP2; logarithm of IC50) | Log IC50 ± SD LAR (LAR; logarithm of IC50) | Cell viability of myocytes C2C12, % of the control (myocytes C2C12) | IC50 (PTP1B; read-out: IC50 for PTP1B)
1 | [O]=[V]1[O]C(c2ccc(Cl)cc2)=NN=Cc2cc(Br)ccc2[O]1.c1cnc2c(c1)ccc1cccnc12 [VC050, [VO(L11)(phen)]] | 12 ± 8% | 38 ± 1% | 273 nM | 57% | 1710 nM | 19% | 25% | −5.37 ± 0.03 | 4260 nM | 657 nM | 53% | −6.18 ± 0.03 | 24 ± 3% | 51 ± 4% | – | – | – | –
2 | ammonium heptamolybdate [(NH4)6Mo7O24, reference compound] | 34 ± 1% | 51 ± 1% | 26 nM | 47% | 38 nM | 28% | 33% | −7.24 ± 0.06 | 58 nM | 26 nM | 40% | −7.59 ± 0.13 | 18 ± 2% | 53 ± 3% | −7.58 ± 0.04 | −7.42 ± 0.04 | – | –
3 | CC(CC(=S)Nc1ccccc1)=NC(Cc1ccccc1)C(=O)[O][V](=[O])([Cl])[Cl] (stereo not drawn) [VC059, [VOCl2(L2)]·0.5Et2O·1.5HCl] | 55 ± 3% | 68 ± 3% | 13 nM | 87% | 76 nM | 71% | 79% | −6.97 ± 0.01 | 107 nM | 26 nM | 82% | −7.59 ± 0.04 | 44 ± 1% | 54 ± 9% | – | – | 86 ± 6% | 110 nM
4 | CC(CC(=S)Nc1ccccc1)=NC(Cc1c[nH]c2ccccc12)C(=O)[O][V](=[O])([Cl])[Cl] (stereo not drawn) [VC054, [VOCl2(L1)]·1.5Et2O ·6.5HCl] | 51 ± 2% | 65 ± 3% | – | 87% | 112 nM | 67% | 78% | −6.85 ± 0.01 | 141 nM | – | 84% | −7.56 ± 0.02 | 41 ± 15% | 75 ± 7% | – | – | 84 ± 8% | 140 nM
